Experimental data taken from patent US20160074351A1, “DISPENSING SYSTEM” (HZNP Limited, priority 2012, published 2016).

Columns and labels:
[1] = major diclofenac metabolite; cited from earlier work
rabbits = settings: doses up to 10 mg/kg/day (approximately […] the MRHD); cited from earlier work
rats [2] = settings: doses up to 10 mg/kg/day (approximately 0.6-fold the MRHD); cited from earlier work
mice [3] = settings: dietary constituent for 2 years, doses up to 2 mg/kg/day; cited from earlier work
rats [4] = settings: dietary constituent for 2 years, doses up to 2 mg/kg/day; cited from earlier work
male and female rats = settings: doses up to 4 mg/kg/day (1.4-fold of the MRHD); cited from earlier work
hairless mice = settings: topical application at doses up to 0.035%; cited from earlier work
mice [5] = settings: doses up to 20 mg/kg/day (0.6-fold the MRHD), maternal and fetal toxicity induced; cited from earlier work
albino mice = settings: daily topical applications for two years at concentrations up to 0.035%; cited from earlier work
rhesus monkeys = settings: daily oral or dermal treatment for 9 to 18 months; cited from earlier work
rabbits, dogs and pigs = settings: dermal or oral administration; published studies; cited from earlier work
[6] = published studies; cited from earlier work
minipigs = test: Ocular effects of dermal DMSO, indirect ophthalmoscopy, minipigs; format: in vivo; settings: multiple-daily dermal application for 52 weeks
rats [7] = test: Ocular effects of dermal DMSO, indirect ophthalmoscopy, rats; format: in vivo; settings: multiple-daily dermal application for 26 weeks
rats [8] = test: Fertility studies of dermally applied DMSO; format: in vivo
From the text: Studies conducted in rats found no effect of dermally applied DMSO on fertility, reproductive performance, or offspring performance.

patients = settings: cited from earlier work
[9] = bacterial reverse mutation, mouse lymphoma point mutation, CHO chromosomal aberration in vitro, in vivo rat bone marrow chromosomal aberration; cited from earlier work
[10] = test system: patients with osteoarthritis; settings: combination vs. oral diclofenac alone
[11] = oral diclofenac sodium; cited from earlier work
[12] = in vivo; cited from earlier work
rats [13] = settings: cited from earlier work
[14] = case report in the literature; cited from earlier work

O=C(O)Cc1ccccc1Nc1c(Cl)cc(O)cc1Cl [4′-hydroxy-diclofenac]
pharmacologic activity [1]: very weak pharmacologic activity

O=C([O-])Cc1ccccc1Nc1c(Cl)cccc1Cl.[Na+] [diclofenac sodium]
teratogenicity (rabbits): did not produce teratogenicity | teratogenicity (rats [2]): did not produce teratogenicity | tumor incidence (mice [3]): no significant increases in tumor incidence | tumor incidence (rats [4]): no significant increases in tumor incidence | fertility (male and female rats): did not affect fertility | time of onset of tumors (hairless mice): earlier median time of onset of tumors | teratogenicity (mice [5]): did not produce teratogenicity | neoplasm incidence (albino mice): did not increase neoplasm incidence

C[S+](C)[O-] [DMSO, dimethyl sulfoxide]
ocular abnormalities (rhesus monkeys): no ocular abnormalities were observed | ocular findings by slit-lamp biomicroscopy (rabbits, dogs and pigs): refractive changes of lens curvature and cortical fibers indicative of myopic changes and/or incidences of lens opacity or discoloration | potential teratogenicity [6]: equivocal | ocular adverse effects by indirect ophthalmoscopy (minipigs): No adverse effects were observed | ocular adverse effects by indirect ophthalmoscopy (rats [7]): No adverse effects were observed | fertility, reproductive performance, or offspring performance (rats [8]): no effect

O=C(O)Cc1ccccc1Nc1c(Cl)cccc1Cl [diclofenac]
patients with marked transaminase elevations whose abnormal tests occurred during the first 2 months of therapy (patients; all trials): 42 of the 51 patients | borderline (less than 3 times ULN) or greater elevations of transaminases, patients (patients; clinical trials of indications other than acute pain): about 15% | meaningful elevations of ALT and/or AST, patients (patients; open-label controlled trial, 3,700 patients treated for 2 to 6 months): about 4% | marked elevations (>8 times the ULN) of ALT and/or AST, patients (patients; open-label controlled trial, 3,700 patients): about 1% | incidence of borderline, moderate and marked elevations of ALT or AST compared to other NSAIDs (patients; open-label study): higher incidence | mutagenicity / clastogenicity [9]: not mutagenic or clastogenic | abnormal creatinine [10]: 7% | abnormal hemoglobin [10]: 9% | abnormal urea [10]: 12% | rate of rectal hemorrhage [10]: less than 1% | binding of diclofenac to protein when administered with aspirin [11]: reduced | clearance of free diclofenac when administered with aspirin [11]: not altered | free unchanged diclofenac excreted in the urine [12]: Little or no | effects of maternal exposure on labor and delivery (rats [13]): increased the incidence of dystocia, delayed parturition, and decreased offspring survival | detection in breast milk [14]: can be detected at low levels
